Laboratory results taken from patent US20210275493A1, “IMMUNO-ONCOLOGY THERAPY USING ISOFLAVONE COMPOUNDS” (NOXOPHARM LIMITED, priority 2019, published 2021).
Entries after “also recorded” stand apart in the source; their conditions may differ.

Key:
NPC cell lines = test: In vitro exposure of NPC cell lines: T-cell chemokine expression; assay type: cell-based
[1] = test system: A549 lung adenocarcinoma spheroids with PBMCs; test: A549 spheroid PBMC co-culture: microscopy and FACS; assay type: cell-based, human
Method: (§1) Spheroids were generated using the liquid overlay technique. Therefore, a 96 well cell culture plate (Greiner) was precoated with 1.5% (w/v) agarose. For this, 0.75 g of agarose was diluted in 50 ml PBS and boiled for 15 min in a pressure cooker at full pressure, followed by another 10 min at lowest pressure level. 50 μl of agarose solution was added to each well of the 96 well plate and allowed to cool down at RT (under a cell culture hood). Tumor cells were trypsinized and adjusted to a cell suspension of 25.000 cells/ml in medium (RPMI 1640, 10% FCS, 1% penicillin/streptomycin). The outer wells of the 96 well plates were filled with PBS, and the remaining wells were filled with 200 μl cell suspension. Cell aggregation was triggered by centrifugation of the plate at 500× g, 5 min, RT. Plates were then maintained for 5 days in an incubator (37° C., humidified atmosphere). Medium was changed every two days by careful aspiration. Spheroid size was acquired with a Carl Zeiss Axiovert microscope and diameters were determined using AxioVision 40 software.
(§2) PBMCs were isolated from buffy coats (DRK-Blutspendedients Baden-Würtemberg-Hessen, Institut für Transfusionsmedizin and Immunhämatologie, Frankfurt am Main, Germany) using Bicoll-Hypaque gradients. Two 50 ml Leukosep® tubes (Greiner) per buffy coat were filled with 15 ml lymphocyte separation medium (Sigma Aldrich) and centrifuged at 1000×g, 1 min, RT, to place the solution below the membrane. Afterwards 30 ml human blood from buffy coats was added, tubes were filled up to 50 ml with PBS/2 mM EDTA solution, and centrifuged at 500×g, 45 min, RT without break. After density gradient centrifugation, the intermediate white layer composed of mononuclear cells was transferred into a fresh sterile 50 ml tube and washed twice with PBS/2 mM EDTA. After RBC lysis (RBC lysis buffer: 135 mM NH4Cl, 10 mM NaHCO3, 0.1 mM EDTA; for 4 min at RT, stop with PBS) cells were diluted in RPMI 1640 medium (+10% FCS, 1% penicillin/streptomycin) at 2×10^6 cells/ml.
(§3) PBMCs were activated with 25 μl/ml CD3/CD28 T cell activator cocktail (StemCell Technologies), and 50.000 pre-activated PBMCs/well were added to spheroids. Afterwards, co-cultures were stimulated with 1 μM or 10 μM idronoxil or DMSO for 3 days. After three days, samples were either harvested for downstream analysis or treated again with 1 μM or 10 μM idronoxil or DMSO±10 μg/ml anti-PD-1 antibody (BioXCell) or the isotype control for another 3 days. Spheroid size was acquired with a Carl Zeiss Axiovert microscope and diameters were determined using AxioVision 40 software. Spheroids were harvested by transferring 5 spheroids of each group into FACS tubes (BD Biosciences), followed by centrifugation (500× g, 5 min, 4° C.). After removing the supernatant, 100 μl Accutase (Sigma Aldrich) was added to the spheroids, followed by 15 min incubation at 37° C. and generation of single cell suspensions by shearing the cell suspension repeatedly trough pipetting using 100 μl filter pipette tips. After centrifugation (500×g, 5 min, 4° C.) and removal of supernatant, cells were blocked with 80 μl of 0.5% BSA/PBS and 2 μl FcR-blocking reagent (Miltenyi Biotec) for 15 min on ice. Thereafter, cells were stained with an antibody mix consisting of anti-human CD4 PE-CF594, anti-human CD8 APC-H7, anti-human TCRab FITC, anti-human CD33 BV510, anti-human CD45 AF700, anti-human CD279 APC, and anti-human CD274 BV421 (each from BD Biosciences) antibodies for 20 min on nice in the dark. After washing with 500 μl FACS Flow (BD Biosciences), cells were resuspended in 300 μl FACS Flow, 20 μL absolute count standard (Bangs Laboratory) were added to each sample, and samples were acquired using an LSR II/Fortessa flow cytometer (BD Biosciences). All Antibodies were previously titrated to determine optimal concentrations. Antibody-capturing CompBeads (BD Biosciences) were used to create the multi-color panel compensation matrix. […]

[2] = test system: NPC cell line spheroids cocultured with PBMCs; test: Coculture of NPC tumor spheroids and PBMCs: PBMC infiltration; assay type: cell-based
Method: (§4) For the generation of tumor spheroids in 3D, 200 μL/well of cell suspension in culture medium was seeded at cell densities of 20,000 cells/well. NPC (C17/NPC43+ve) cells were dispensed into Nunclon Sphera 96 wells plate (Thermo Fisher Scientific). The Nunclon Sphera surface was designed to cause minimal cell attachment with minimal extracellular matrix protein binding to the plate surfaces. Plates were incubated at 37° C. and 5% CO2 in RPMI supplemented with FBS and ROCK inhibitor.
(§5) For flow cytometry analyses, 8 wells/condition were seeded. OUT and IN compartments were isolated by first pooling the 8 cocultures wells in eppendorf tubes. Spheroids were gently resuspended and left to sediment to the bottom of the tubes. Supernatant cell suspension constituted the non-infiltrating immune cells (=OUT). These steps were repeated twice with Phosphate Buffer Saline (PBS) in order to separate the spheroids from the non-infiltrating immune cells. Spheroids were then trypsinized to obtain a single cell suspension (=IN) and further analyzed by flow cytometry.
(§6) The interactions between tumor spheroids and PBMCs through heterotypic cocultures was explored. Spheroids were generated from an NPC cell line cocultured with PBMCs obtained from healthy donors that were HLA-matched whenever possible. After coculture, lymphocyte tumor infiltration and tumor cell apoptosis were measured. The cellular compositions within infiltrated tumor spheroids by mechanically separating infiltrating cells (IN) and cells remaining in the medium (OUT) were studied. A description of the coculture experimental protocol is illustrated in FIG. 1.
An increase in PBMCs infiltration in the tumor spheroids upon treatment was detected as early as 2 hours after the beginning of the experiment, while the number of infiltrated cells remained constant in the controls (DMSO) over 72 hours of coculture. […] Moreover, the CellEvent staining was performed on the coculture to confirm the induction of apoptosis and observed that spheroid infiltration was proportional to an active apoptosis process in tumor cells. […]

[3] = test system: MCF-7 mammary carcinoma spheroids with PBMCs; test: MCF-7 spheroid PBMC co-culture: microscopy and FACS; assay type: cell-based, human
Method: as §1, §2, §3

[4] = Clinical examples: plasma concentration after daily dosing; assay type: in vivo, human; conditions: 800 mg daily dosage for a period of 7 days
Method: An individual presents with metastatic castration resistant prostate cancer. […] The individual has not been prior treated with an […]. The individual is given 800 mg daily dosage of idronoxil for a period of 7 days to establish a plasma concentration of 350 ng/mL of idronoxil. The individual is then administered with an anti-PD-1 antibody according to the product information. The dosage cycle is repeated twice and the individual is assessed for response to anti PD-1 therapy.
An individual presents with advanced melanoma, having been assessed at 12 weeks from first administration of an anti-CTLA-4 antibody as having stable disease and not having achieved a partial response. The individual is given 800 mg daily dosage of idronoxil for a period of 7 days to establish a plasma concentration of 350 ng/mL of idronoxil. The individual is then administered with an anti-CTLA-4 antibody according to the product information. The dosage cycle is repeated twice and the individual is assessed for response to anti-CTLA-4 therapy.

[5] = test system: T cells infiltrating C17/NPC43+ve spheroids; test: Flow cytometry of spheroid-infiltrating T cells (IN/OUT) in NPC spheroid/PBMC coculture; assay type: cell-based
Method: as §5
Differences in quantitative variables were analyzed by the Mann-Whitney U test when comparing 2 groups. A p value<0.05 was considered as statistically significant.
as §6
These findings support the use of idronoxil to induce immunomodulatory responses, and in combination with conventional chemotherapies, enhance antitumor immunity. […] Finally, additionally to the above findings the inventors detected a significant reduction in PD1^+ expression in total infiltrating memory cells compared to DMSO controls (mean 48.57±5.117 vs. mean 62.06±3.066; p=0.0086; FIG. 3). In contrast, significant up-regulation in PD1^+ expression in naïve infiltrated cells upon idronoxil treatment as compared to DMSO (mean 62.10±7.049 vs. mean 43.57±3.870; p=0.0017) was found.

[6] = test system: NPC (C17/NPC43+ve) cells, C17 spheroid; test: 3D tumor spheroid apoptosis imaging (CellEvent Caspase-3/7); assay type: cell-based
Method: as §4
To mimic in vivo conditions, the cytotoxicity of idronoxil on NPC cells using three-dimensional (3D) tumor cultures was examined. The effect of increasing concentrations of idronoxil was monitored on apoptosis using fluorescent probes (non-toxic CellEvent Caspase-3/7 Green and LysoTracker Deep Red) in combination with bright-field microscopy to perform persistent real-time spheroid imaging. […] When LysoTracker was added to the spheroids, the staining pattern was complementary to that of CellEvent, with the LysoTracker constantly accumulating in the outer and presumably metabolically active layers of the spheroids.

For `Oc1ccc(C2=Cc3ccc(O)cc3OC2)cc1` [idronoxil, 2H-1-Benzopyran-7-0,1,3-(4-hydroxyphenyl)], the “expression of T-cell chemokines” value (NPC cell lines) was “expression of the T-cell chemokines CXCL8, 9 and 10”, the 3D spheroid size ([1]; 1 μM, day 6) was “reduced” and the 3D spheroid size ([1]; 10 μM, day 3) was “reduces”. For the same molecule, the “immune activation (cluster formation)” value ([1]; 10 μM, day 3) was “induces or maintains”, the “expression of PD1 on CD8+ T cells” value ([1]; 10 μM, day 3, FACS) was “reduced” and the “expression of PDL1 on myeloid cells” value ([1]; 10 μM, day 3, FACS) was “reduced”. The “immune activation (cluster formation)” value ([1]; 10 μM, day 6) was “maintains”, the “invasion of the cells (into agarose)” value ([1]; 10 μM, day 6) was “reduced; also recorded: prevents” and the spheroid size ([1]; 10 μM, day 6) was “reduced”. For the same molecule, the “expression of PD1 on both CD4+ and CD8+ T cells” value ([1]; 10 μM, day 6, FACS) was “reduces”, the “expression of PDL1 on myeloid cells” value ([1]; 10 μM, day 6, FACS) was “reduces” and the immune cell infiltrates ([1]; 10 μM, day 6, FACS) was “increased”. For the same molecule, the “time at which increase in PBMCs infiltration was detected” value ([2]; after the beginning of the experiment) was 2 h, the “idronoxil-induced PBMC migration upon blockade of CXCL10” value ([2]; neutralizing antibodies added to tumor spheroid cultures) was “significantly reduced” and the “influx of PBMC into the spheroids” value ([2]; vs DMSO control, up to 72 hours of coculture) was “significantly increased”. For the same molecule, the “expression of PD1 on CD4+ T cells” value ([3]; 10 μM, day 3, FACS) was “reduces”, the “expression of PDL1 on myeloid cells” value ([3]; 10 μM, day 3, FACS) was “reduces” and the “number of myeloid cells” value ([3]; 10 μM, day 3, FACS) was “reduces”. The 3D spheroid size ([3]; 10 μM, day 6) was “reduced”, the “immune function of the cells (cluster formation)” value ([3]; 10 μM, day 6) was “maintained” and the “number of tumor cells” value ([3]; 10 μM, day 6, FACS) was “reduces”. For the same molecule, the 3D spheroid size ([3]; day 3) was “reduced”, the “immune activation (cluster formation)” value ([3]; day 3) was “induced or maintained” and the “expression of PD1 on both CD4+ and CD8+ T cells” value ([3]; day 6, especially at 10 μM, FACS) was “reduces”. The “PDL1 expression by myeloid cells” value ([3]; day 6, idronoxil in general, FACS) was “strongly reduces”, the “plasma concentration of idronoxil” value [4] was 350 ng/mL and the “double-positive (DP) T cells in the tumor structure” value ([5]; CD3+ populations IN vs OUT, 72 hours) was “significant increase”. For the same molecule, the “PD1+ expression in naïve infiltrated cells (mean)” value ([5]; DMSO control 43.57±3.870, p=0.0017) was 62.10±7.049, the “PD1+ expression in total infiltrating memory cells (mean)” value ([5]; DMSO control 62.06±3.066, p=0.0086) was 48.57±5.117 and the “proportions of CD45RO+ CD27+ memory cells among infiltrating DP T cells” value ([5]; compared to control) was “decreased proportions”. The “proportions of CD45RO- CD27+ naïve cells among infiltrating DP T cells” value ([5]; compared to control) was “increased proportions”, the “CD62L expression of tumor-infiltrating DP T cells” value ([5]; compared to control, CCR7 not reduced) was “pronounced reduction” and the “IC50 values, spheroid-derived cells in 3D versus 2D conditions” value ([6]; 3D vs 2D) was “comparable”. For the same molecule, the IC50 ([6]; C17 spheroids, 3D culture, apoptosis by CellEvent Caspase-3/7, read-out: IC50 (3D CellEvent dose-response curve)) was 2100 nM and the “intensity of C17 spheroid staining with CellEvent” value ([6]; increasing concentrations of idronoxil) was “proportional to idronoxil concentrations”.
